ChEMBL document CHEMBL1127774, “2,3,6-Substituted quinazolinones as angiotensin II receptor antagonists” (Bioorg Med Chem Lett, 1994)

molecular target: T1, Angiotensin II receptor (Rattus norvegicus, UniProt P29089+P25095+P35351); test: Concentration required for 50% inhibition of binding against Angiotensin II receptor in the rat adrenal cortex tissue; assay type: tissue-based
T1 sequence (P29089 whole entry): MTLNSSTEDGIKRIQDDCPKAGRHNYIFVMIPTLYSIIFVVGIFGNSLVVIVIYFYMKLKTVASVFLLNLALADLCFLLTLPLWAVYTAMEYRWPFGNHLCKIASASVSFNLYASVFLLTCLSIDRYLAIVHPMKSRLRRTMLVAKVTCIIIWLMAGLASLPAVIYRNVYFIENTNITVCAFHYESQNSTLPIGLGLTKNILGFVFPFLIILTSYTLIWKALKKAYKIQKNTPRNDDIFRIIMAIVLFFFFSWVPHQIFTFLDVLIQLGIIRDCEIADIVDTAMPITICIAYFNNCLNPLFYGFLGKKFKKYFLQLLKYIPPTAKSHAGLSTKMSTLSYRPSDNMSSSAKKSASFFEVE
T1 sequence (P25095 whole entry): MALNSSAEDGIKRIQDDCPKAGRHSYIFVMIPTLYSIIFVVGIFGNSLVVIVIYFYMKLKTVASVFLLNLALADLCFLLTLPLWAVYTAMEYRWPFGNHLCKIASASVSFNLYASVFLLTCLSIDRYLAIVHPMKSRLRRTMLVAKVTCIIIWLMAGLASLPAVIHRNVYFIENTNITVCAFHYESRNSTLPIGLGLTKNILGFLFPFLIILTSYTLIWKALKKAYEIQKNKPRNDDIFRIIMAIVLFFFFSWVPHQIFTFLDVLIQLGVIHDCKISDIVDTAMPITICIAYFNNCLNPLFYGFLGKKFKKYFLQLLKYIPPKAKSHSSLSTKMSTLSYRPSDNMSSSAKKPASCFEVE
T1 sequence (P35351 whole entry): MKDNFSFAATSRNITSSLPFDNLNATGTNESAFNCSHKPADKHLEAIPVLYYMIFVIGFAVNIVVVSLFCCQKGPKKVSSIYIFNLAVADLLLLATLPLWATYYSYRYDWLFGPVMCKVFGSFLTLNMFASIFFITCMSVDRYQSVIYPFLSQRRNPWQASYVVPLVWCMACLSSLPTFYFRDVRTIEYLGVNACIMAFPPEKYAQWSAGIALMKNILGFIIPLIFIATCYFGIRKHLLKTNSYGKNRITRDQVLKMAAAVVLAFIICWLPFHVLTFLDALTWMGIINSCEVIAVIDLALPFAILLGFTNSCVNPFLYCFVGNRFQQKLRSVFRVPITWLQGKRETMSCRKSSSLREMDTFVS

Going from `CCCCc1nc2ccc(C(C)N)cc2c(=O)n1Cc1ccc(-c2ccccc2-c2nn[nH]n2)cc1` (centres undefined) to `CCCCc1nc2ccc(C(C)O)cc2c(=O)n1Cc1ccc(-c2ccccc2-c2nn[nH]n2)cc1` (centres undefined), the IC50 falls from 0.014 µM to 0.009 µM (1.6-fold).

Compared with `CCCCc1nc2ccc(CN)cc2c(=O)n1Cc1ccc(-c2ccccc2-c2nn[nH]n2)cc1`, `CCCCc1nc2ccc(CO)cc2c(=O)n1Cc1ccc(-c2ccccc2-c2nn[nH]n2)cc1` is 1.5-fold lower in IC50: 0.015 µM for the first, 0.01 µM for the second.

`CCCCc1nc2ccc(C(C)(C)O)cc2c(=O)n1Cc1ccc(-c2ccccc2-c2nn[nH]n2)cc1` and `CCCCc1nc2ccc(C(C)(C)OC)cc2c(=O)n1Cc1ccc(-c2ccccc2-c2nn[nH]n2)cc1` [CL-329167] are within 1.5-fold of each other in IC50: 0.009 µM for the first, 0.006 µM for the second.

First: CCCCc1nc2ccc(COC)cc2c(=O)n1Cc1ccc(-c2ccccc2-c2nn[nH]n2)cc1
Second: CCCCc1nc2ccc(C)cc2c(=O)n1Cc1ccc(-c2ccccc2-c2nn[nH]n2)cc1
The IC50 of the first is 1.8-fold higher: 0.018 µM for the first, 0.01 µM for the second.

`CCCCc1nc2ccc(C(CC)OC)cc2c(=O)n1Cc1ccc(-c2ccccc2-c2nn[nH]n2)cc1` (centres undefined) and `CCCCc1nc2ccc(C(C)OC)cc2c(=O)n1Cc1ccc(-c2ccccc2-c2nn[nH]n2)cc1` (centres undefined) are within 1.5-fold of each other in IC50: 0.005 µM for the first, 0.007 µM for the second.

First: CCCCc1nc2ccc(C(O)CC)cc2c(=O)n1Cc1ccc(-c2ccccc2-c2nn[nH]n2)cc1 (centres undefined)
Second: CCCCc1nc2ccc(C(O)CO)cc2c(=O)n1Cc1ccc(-c2ccccc2-c2nn[nH]n2)cc1 (centres undefined)
The IC50 of the first is 83-fold lower: 0.012 µM for the first, 1 µM for the second. The first is the more potent here.

Going from `CCCCc1nc2ccc(C(OC)c3ccccc3)cc2c(=O)n1Cc1ccc(-c2ccccc2-c2nn[nH]n2)cc1` (centres undefined) to `CCCCc1nc2ccc(C(O)C(C)(C)C)cc2c(=O)n1Cc1ccc(-c2ccccc2-c2nn[nH]n2)cc1` (centres undefined), the IC50 rises from 0.009 µM to 1 µM (110-fold).

For `CCCCc1nc2ccc(C(C)NC(C)=O)cc2c(=O)n1Cc1ccc(-c2ccccc2-c2nn[nH]n2)cc1` (centres undefined), the IC50 was 0.006 µM.

molecular target: Type-1 angiotensin II receptor (Oryctolagus cuniculus) (UniProt P34976); test: Concentration required for inhibition […] against Angiotensin II receptor in rabbit aortic rings
Sequence (P34976 whole entry, looked up): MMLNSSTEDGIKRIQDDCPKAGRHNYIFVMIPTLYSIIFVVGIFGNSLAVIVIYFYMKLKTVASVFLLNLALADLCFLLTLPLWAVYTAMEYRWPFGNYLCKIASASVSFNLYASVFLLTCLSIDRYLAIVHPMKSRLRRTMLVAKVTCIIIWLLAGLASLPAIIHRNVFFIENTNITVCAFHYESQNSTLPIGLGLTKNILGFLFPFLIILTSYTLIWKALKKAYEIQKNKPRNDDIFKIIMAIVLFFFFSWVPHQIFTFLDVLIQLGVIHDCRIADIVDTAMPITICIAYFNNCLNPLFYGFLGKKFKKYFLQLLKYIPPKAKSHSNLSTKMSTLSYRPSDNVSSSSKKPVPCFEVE

`CCCCc1nc2ccc(C(C)(C)OC)cc2c(=O)n1Cc1ccc(-c2ccccc2-c2nn[nH]n2)cc1` [CL-329167] was tested, and the pA2 was 8.01.

molecular target: T2, Type-1 angiotensin II receptor (Bos taurus, UniProt P25104); test: Concentration required for 50% inhibition of binding against Angiotensin II receptor in the bovine adrenal cortex tissue; assay type: tissue-based
T2 sequence (P25104 whole entry): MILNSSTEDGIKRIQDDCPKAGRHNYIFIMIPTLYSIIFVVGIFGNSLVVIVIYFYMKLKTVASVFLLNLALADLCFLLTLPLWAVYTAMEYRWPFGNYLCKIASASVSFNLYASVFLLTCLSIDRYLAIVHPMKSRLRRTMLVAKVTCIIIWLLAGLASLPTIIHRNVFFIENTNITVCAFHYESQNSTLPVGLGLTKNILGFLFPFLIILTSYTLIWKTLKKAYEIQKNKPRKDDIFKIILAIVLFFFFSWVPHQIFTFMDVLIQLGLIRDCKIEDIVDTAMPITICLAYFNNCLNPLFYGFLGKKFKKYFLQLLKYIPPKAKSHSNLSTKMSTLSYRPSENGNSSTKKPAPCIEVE

`CCCCc1nc2ccc(COc3ccccn3)cc2c(=O)n1Cc1ccc(-c2ccccc2-c2nn[nH]n2)cc1` and `CCCCc1nc2ccc(COc3ccccc3)cc2c(=O)n1Cc1ccc(-c2ccccc2-c2nnn[nH]2)cc1` are the same in IC50: 0.13 µM for the first, 0.13 µM for the second.

`CCCCc1nc(Cl)c(CO)n1Cc1ccc(-c2ccccc2-c2nn[nH]n2)cc1` [LOSARTAN] was tested, and the IC50 was 0.33 µM.
